From ChEMBL document CHEMBL4507259 (2021)

Key:
[1] = target: Prostaglandin E2 receptor EP2 subtype (Homo sapiens) (UniProt P43116); test: EP2 (h) CEREP ligand profiling; details: filed as agonist, Compound concentration 10.0 uM
[2] = target: Delta-type opioid receptor (Homo sapiens) (UniProt P41143); test: delta (DOP) (h) CEREP ligand profiling; details: filed as agonist, Compound concentration 10.0 uM
[3] = target: Androgen receptor (Homo sapiens) (UniProt P10275); test: AR (h) CEREP ligand profiling; details: filed as agonist, Compound concentration 10.0 uM
Androgen receptor (Homo sapiens), sequence (P10275 whole entry): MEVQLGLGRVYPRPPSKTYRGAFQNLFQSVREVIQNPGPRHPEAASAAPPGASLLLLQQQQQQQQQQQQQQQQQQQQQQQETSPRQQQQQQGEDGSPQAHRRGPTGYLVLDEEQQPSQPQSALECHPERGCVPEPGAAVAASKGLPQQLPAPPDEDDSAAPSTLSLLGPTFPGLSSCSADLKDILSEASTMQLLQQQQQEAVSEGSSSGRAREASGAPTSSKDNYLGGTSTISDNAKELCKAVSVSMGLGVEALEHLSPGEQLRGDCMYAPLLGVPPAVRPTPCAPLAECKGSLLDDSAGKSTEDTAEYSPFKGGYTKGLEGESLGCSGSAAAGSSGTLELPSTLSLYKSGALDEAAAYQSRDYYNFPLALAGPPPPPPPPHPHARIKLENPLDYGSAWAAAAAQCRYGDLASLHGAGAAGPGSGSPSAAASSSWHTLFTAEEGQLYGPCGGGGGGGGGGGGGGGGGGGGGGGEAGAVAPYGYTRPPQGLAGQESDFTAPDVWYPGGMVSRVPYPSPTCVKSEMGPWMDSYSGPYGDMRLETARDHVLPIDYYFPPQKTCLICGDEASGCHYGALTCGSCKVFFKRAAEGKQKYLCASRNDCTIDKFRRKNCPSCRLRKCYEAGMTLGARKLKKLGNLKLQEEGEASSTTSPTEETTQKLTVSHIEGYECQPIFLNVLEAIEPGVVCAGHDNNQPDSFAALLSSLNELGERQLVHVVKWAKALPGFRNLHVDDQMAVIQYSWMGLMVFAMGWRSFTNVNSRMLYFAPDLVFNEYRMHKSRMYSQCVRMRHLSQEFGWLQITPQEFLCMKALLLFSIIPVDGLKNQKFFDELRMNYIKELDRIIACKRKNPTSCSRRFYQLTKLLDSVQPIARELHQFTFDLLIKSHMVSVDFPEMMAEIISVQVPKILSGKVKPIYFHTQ

[4] = system: Tyrosine-protein kinase ABL1 (Homo sapiens), P00519 [Q252H]; details: Compound concentration 1000.0 nM
[5] = target: Atypical kinase COQ8A, mitochondrial (Homo sapiens) (UniProt Q8NI60); details: Compound concentration 1000.0 nM
[6] = target: Atypical kinase COQ8B, mitochondrial (Homo sapiens) (UniProt Q96D53); details: Compound concentration 1000.0 nM
Atypical kinase COQ8B, mitochondrial (Homo sapiens), sequence (Q96D53 whole entry): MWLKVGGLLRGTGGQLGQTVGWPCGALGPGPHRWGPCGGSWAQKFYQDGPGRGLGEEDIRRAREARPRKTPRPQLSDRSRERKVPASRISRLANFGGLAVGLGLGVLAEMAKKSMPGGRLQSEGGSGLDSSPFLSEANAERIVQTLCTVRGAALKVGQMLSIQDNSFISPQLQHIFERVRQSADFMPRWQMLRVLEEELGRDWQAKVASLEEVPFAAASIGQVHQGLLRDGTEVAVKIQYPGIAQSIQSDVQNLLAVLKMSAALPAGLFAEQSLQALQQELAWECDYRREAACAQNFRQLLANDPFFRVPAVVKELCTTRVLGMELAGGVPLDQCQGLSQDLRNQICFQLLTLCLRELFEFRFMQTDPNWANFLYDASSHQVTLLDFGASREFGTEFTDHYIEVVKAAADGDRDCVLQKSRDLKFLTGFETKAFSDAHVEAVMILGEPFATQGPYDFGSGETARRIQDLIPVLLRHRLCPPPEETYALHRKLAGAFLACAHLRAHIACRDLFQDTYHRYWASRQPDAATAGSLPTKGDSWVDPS

[7] = target: 5'-AMP-activated protein kinase catalytic subunit alpha-2 (Homo sapiens) (UniProt P54646); details: Compound concentration 1000.0 nM
[8] = target: Calcium/calmodulin-dependent protein kinase type 1D (Homo sapiens) (UniProt Q8IU85); details: Compound concentration 1000.0 nM
[9] = target: Calcium/calmodulin-dependent protein kinase type IV (Homo sapiens) (UniProt Q16566); details: Compound concentration 1000.0 nM
[10] = target: Serine/threonine-protein kinase Chk1 (Homo sapiens) (UniProt O14757); details: Compound concentration 1000.0 nM
[11] = target: Serine/threonine-protein kinase Chk2 (Homo sapiens) (UniProt O96017); details: Compound concentration 1000.0 nM
[12] = target: Macrophage colony-stimulating factor 1 receptor (Homo sapiens) (UniProt P07333); details: Compound concentration 1000.0 nM
[13] = target: Casein kinase I isoform delta (Homo sapiens) (UniProt P48730); details: Compound concentration 1000.0 nM
[14] = target: Serine/threonine-protein kinase DCLK2 (Homo sapiens) (UniProt Q8N568); details: Compound concentration 1000.0 nM
[15] = system: Epidermal growth factor receptor (Homo sapiens), P00533 [G719S]; details: Compound concentration 1000.0 nM
[16] = target: Receptor tyrosine-protein kinase erbB-3 (Homo sapiens) (UniProt P21860); details: Compound concentration 1000.0 nM
[17] = target: Mitogen-activated protein kinase 3 (Homo sapiens) (UniProt P27361); details: Compound concentration 1000.0 nM
[18] = target: Rhodopsin kinase GRK1 (Homo sapiens) (UniProt Q15835); details: Compound concentration 1000.0 nM
[19] = target: Interleukin-1 receptor-associated kinase 3 (Homo sapiens) (UniProt Q9Y616); details: Compound concentration 1000.0 nM
[20] = target: Tyrosine-protein kinase JAK2 (Homo sapiens) (UniProt O60674); details: Compound concentration 1000.0 nM
[21] = target: Serine/threonine-protein kinase 10 (Homo sapiens) (UniProt O94804); details: Compound concentration 1000.0 nM
[22] = target: MAP kinase-activated protein kinase 5 (Homo sapiens) (UniProt Q8IW41); details: Compound concentration 1000.0 nM
MAP kinase-activated protein kinase 5 (Homo sapiens), sequence (Q8IW41 whole entry): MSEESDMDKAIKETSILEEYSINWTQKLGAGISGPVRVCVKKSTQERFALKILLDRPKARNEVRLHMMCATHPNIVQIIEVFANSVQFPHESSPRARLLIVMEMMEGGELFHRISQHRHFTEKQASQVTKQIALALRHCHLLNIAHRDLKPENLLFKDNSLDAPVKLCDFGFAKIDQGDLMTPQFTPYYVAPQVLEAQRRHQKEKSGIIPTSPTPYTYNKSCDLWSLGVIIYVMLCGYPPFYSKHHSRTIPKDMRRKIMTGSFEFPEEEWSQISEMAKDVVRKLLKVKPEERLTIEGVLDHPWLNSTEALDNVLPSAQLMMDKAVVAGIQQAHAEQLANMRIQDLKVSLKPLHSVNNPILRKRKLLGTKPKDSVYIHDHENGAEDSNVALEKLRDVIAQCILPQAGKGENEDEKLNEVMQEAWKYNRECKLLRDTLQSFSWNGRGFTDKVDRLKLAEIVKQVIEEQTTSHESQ

[23] = target: Dual specificity mitogen-activated protein kinase kinase 3 (Homo sapiens) (UniProt P46734); details: Compound concentration 1000.0 nM
Dual specificity mitogen-activated protein kinase kinase 3 (Homo sapiens), sequence (P46734 whole entry): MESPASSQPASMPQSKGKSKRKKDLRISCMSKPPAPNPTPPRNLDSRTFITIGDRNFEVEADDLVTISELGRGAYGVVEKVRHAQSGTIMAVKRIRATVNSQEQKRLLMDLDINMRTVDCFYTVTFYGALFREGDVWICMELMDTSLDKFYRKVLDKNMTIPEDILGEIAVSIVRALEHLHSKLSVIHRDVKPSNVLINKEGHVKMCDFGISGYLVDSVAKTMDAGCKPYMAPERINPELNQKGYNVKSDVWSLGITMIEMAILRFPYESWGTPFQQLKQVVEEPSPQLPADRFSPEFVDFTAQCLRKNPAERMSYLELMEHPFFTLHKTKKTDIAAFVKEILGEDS

[24] = target: Mitogen-activated protein kinase kinase kinase 10 (Homo sapiens) (UniProt Q02779); details: Compound concentration 1000.0 nM
[25] = target: Serine/threonine-protein kinase PAK 5 (Homo sapiens) (UniProt Q9P286); details: Compound concentration 1000.0 nM
[26] = system: Phosphatidylinositol 4,5-bisphosphate 3-kinase catalytic subunit alpha isoform (Homo sapiens), P42336 [C420R]; details: Compound concentration 1000.0 nM
[27] = target: 1-phosphatidylinositol 3-phosphate 5-kinase (Homo sapiens) (UniProt Q9Y2I7); details: Compound concentration 1000.0 nM
[28] = target: Phosphatidylinositol 5-phosphate 4-kinase type-2 beta (Homo sapiens) (UniProt P78356); details: Compound concentration 1000.0 nM
[29] = target: Serine/threonine-protein kinase D1 (Homo sapiens) (UniProt Q15139); details: Compound concentration 1000.0 nM
Serine/threonine-protein kinase D1 (Homo sapiens), sequence (Q15139 whole entry): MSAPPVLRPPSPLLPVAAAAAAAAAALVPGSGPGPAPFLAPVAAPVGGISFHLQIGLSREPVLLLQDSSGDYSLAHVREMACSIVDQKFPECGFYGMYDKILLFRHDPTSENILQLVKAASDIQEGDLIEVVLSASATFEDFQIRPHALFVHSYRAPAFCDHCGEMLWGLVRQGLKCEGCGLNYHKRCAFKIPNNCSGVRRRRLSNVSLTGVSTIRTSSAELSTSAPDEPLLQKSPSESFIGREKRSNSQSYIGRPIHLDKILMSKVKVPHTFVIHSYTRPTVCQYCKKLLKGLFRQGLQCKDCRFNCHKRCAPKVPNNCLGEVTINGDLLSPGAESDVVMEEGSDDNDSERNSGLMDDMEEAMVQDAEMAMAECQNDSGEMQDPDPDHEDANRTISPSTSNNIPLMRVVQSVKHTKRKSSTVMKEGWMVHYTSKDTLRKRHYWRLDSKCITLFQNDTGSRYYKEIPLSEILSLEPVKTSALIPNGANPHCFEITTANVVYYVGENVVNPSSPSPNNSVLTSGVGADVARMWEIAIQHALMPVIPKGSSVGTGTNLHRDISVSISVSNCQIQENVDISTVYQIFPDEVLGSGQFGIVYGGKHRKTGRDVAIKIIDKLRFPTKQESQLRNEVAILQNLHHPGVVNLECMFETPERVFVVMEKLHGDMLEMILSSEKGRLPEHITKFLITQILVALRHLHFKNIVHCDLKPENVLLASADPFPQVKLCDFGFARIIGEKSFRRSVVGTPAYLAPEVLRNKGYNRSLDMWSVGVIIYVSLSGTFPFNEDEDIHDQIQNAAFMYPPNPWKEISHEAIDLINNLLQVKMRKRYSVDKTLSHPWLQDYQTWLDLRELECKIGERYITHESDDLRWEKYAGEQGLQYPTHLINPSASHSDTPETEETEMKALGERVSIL

[30] = system: Proto-oncogene tyrosine-protein kinase receptor Ret (Homo sapiens), P07949 [V804M]; details: Compound concentration 1000.0 nM
[31] = target: Ribosomal protein S6 kinase alpha-1 (Homo sapiens) (UniProt Q15418); details: Compound concentration 1000.0 nM
[32] = target: Serine/threonine-protein kinase Sgk3 (Homo sapiens) (UniProt Q96BR1); details: Compound concentration 1000.0 nM
Serine/threonine-protein kinase Sgk3 (Homo sapiens), sequence (Q96BR1 whole entry): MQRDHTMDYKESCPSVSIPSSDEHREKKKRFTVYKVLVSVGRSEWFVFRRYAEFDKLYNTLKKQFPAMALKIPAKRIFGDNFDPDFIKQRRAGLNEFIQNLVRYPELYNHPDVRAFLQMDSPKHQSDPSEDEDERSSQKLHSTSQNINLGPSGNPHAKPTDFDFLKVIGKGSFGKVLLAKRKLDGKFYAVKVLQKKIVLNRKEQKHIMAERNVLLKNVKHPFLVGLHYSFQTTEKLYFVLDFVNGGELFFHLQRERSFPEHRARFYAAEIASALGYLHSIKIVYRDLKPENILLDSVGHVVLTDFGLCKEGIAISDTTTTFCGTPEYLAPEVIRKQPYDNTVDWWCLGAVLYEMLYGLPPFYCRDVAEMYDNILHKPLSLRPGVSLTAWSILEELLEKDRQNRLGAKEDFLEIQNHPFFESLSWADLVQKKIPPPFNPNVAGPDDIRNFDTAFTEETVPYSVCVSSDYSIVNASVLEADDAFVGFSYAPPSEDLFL

[33] = target: Serine/threonine-protein kinase tousled-like 2 (Homo sapiens) (UniProt Q86UE8); details: Compound concentration 1000.0 nM
Serine/threonine-protein kinase tousled-like 2 (Homo sapiens), sequence (Q86UE8 whole entry, looked up): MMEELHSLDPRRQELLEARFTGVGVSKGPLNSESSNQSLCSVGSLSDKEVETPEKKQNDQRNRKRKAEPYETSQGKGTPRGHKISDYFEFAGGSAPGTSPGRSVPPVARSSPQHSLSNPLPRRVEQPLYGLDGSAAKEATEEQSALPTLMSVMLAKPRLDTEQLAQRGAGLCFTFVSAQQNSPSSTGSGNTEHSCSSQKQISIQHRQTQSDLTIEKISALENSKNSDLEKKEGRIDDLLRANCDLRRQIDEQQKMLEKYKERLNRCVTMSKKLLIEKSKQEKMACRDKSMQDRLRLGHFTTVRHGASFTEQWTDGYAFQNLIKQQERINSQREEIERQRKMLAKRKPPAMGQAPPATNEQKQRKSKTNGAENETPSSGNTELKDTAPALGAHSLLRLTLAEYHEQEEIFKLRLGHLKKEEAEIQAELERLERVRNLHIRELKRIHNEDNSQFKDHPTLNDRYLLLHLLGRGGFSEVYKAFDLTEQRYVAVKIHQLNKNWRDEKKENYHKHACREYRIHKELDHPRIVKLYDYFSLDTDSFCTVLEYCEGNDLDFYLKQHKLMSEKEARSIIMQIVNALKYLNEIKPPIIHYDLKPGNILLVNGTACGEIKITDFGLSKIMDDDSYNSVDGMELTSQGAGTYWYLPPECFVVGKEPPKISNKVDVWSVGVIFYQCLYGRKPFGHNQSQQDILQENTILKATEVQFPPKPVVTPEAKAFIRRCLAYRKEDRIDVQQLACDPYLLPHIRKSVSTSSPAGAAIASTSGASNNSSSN

[34] = target: Non-receptor tyrosine-protein kinase TYK2 (Homo sapiens) (UniProt P29597); details: Compound concentration 1000.0 nM
[35] = target: Serine/threonine-protein kinase VRK2 (Homo sapiens) (UniProt Q86Y07); details: Compound concentration 1000.0 nM
Serine/threonine-protein kinase VRK2 (Homo sapiens), sequence (Q86Y07 whole entry): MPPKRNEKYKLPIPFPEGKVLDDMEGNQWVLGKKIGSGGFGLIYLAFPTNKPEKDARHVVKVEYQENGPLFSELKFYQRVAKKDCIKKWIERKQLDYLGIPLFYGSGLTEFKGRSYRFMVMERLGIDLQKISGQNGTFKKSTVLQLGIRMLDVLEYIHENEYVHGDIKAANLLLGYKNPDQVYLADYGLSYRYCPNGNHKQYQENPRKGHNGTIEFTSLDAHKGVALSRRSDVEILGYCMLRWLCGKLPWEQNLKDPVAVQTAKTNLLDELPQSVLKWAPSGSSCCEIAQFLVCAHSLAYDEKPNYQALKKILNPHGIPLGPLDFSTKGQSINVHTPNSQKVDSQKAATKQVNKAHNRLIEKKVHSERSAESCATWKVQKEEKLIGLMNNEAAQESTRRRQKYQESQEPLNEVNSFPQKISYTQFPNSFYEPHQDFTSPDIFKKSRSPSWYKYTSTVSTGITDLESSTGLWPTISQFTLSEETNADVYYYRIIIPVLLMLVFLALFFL

[36] = target: Serine/threonine-protein kinase WNK4 (Homo sapiens) (UniProt Q96J92); details: Compound concentration 1000.0 nM
[37] = target: Kappa-type opioid receptor (Homo sapiens) (UniProt P41145); details: Compound concentration 10.0 uM
[38] = target: T1, Alpha-2A adrenergic receptor (Homo sapiens) (UniProt P08913); details: Compound concentration 10.0 uM
T1 sequence (whole entry): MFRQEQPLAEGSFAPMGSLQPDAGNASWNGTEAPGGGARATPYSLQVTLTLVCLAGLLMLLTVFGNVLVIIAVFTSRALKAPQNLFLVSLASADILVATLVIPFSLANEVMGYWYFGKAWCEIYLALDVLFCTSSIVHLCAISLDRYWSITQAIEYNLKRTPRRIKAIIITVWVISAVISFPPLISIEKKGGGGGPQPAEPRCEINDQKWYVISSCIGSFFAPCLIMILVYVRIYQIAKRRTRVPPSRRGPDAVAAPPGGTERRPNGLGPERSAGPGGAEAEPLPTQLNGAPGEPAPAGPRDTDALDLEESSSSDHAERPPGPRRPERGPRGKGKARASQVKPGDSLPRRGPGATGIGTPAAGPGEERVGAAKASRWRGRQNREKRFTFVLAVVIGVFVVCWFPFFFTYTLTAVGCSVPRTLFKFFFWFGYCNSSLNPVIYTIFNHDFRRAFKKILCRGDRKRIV

CNC(=O)Nc1ccc2c(c1)[C@@]1(CC2)OC(=O)N(CC(=O)N(Cc2ccc(F)cc2)[C@@H](C)C(F)(F)F)C1=O [A-486]
inactive: inhibition [1] 10% | inhibition [2] 1% | inhibition [3] 4% | residual activity [4] 97% | residual activity [5] 88% | residual activity [6] 95% | residual activity [7] 57% | residual activity [8] 100% | residual activity [9] 85% | residual activity [10] 100% | residual activity [11] 100% | residual activity [12] 100% | residual activity [13] 100% | residual activity [14] 89% | residual activity [15] 100% | residual activity [16] 81% | residual activity [17] 100% | residual activity [18] 73% | residual activity [19] 100% | residual activity [20] 100% | residual activity [21] 92% | residual activity [22] 86% | residual activity [23] 87% | residual activity [24] 73% | residual activity [25] 100% | residual activity [26] 80% | residual activity [27] 72% | residual activity [28] 60% | residual activity [29] 100% | residual activity [30] 100% | residual activity [31] 100% | residual activity [32] 72% | residual activity [33] 100% | residual activity [34] 68% | residual activity [35] 97% | residual activity [36] 100% | inhibition [37] 8.21% | inhibition [38] -1.4%

CNC(=O)Nc1ccc2c(c1)CC[C@@]21OC(=O)N(CC(=O)N(Cc2ccc(F)cc2)[C@@H](C)C(F)(F)F)C1=O [A-485]
inactive: inhibition [1] 27% | inhibition [2] 11% | inhibition [3] -4% | residual activity [4] 81% | residual activity [5] 74% | residual activity [6] 100% | residual activity [7] 99% | residual activity [8] 94% | residual activity [9] 75% | residual activity [10] 98% | residual activity [11] 100% | residual activity [12] 90% | residual activity [13] 99% | residual activity [14] 70% | residual activity [15] 95% | residual activity [16] 89% | residual activity [17] 92% | residual activity [18] 82% | residual activity [19] 95% | residual activity [20] 83% | residual activity [21] 100% | residual activity [22] 82% | residual activity [23] 71% | residual activity [24] 57% | residual activity [25] 100% | residual activity [26] 80% | residual activity [27] 58% | residual activity [28] 69% | residual activity [29] 99% | residual activity [30] 98% | residual activity [31] 88% | residual activity [32] 68% | residual activity [33] 100% | residual activity [34] 86% | residual activity [35] 91% | residual activity [36] 73% | inhibition [37] 18.5% | inhibition [38] 3.72%
